This data set in a line: Dissolution time: time required fully to dissolve 1 gram of powder into 100 ml of water. It counts as physicochemical. The settings on record: 1 gram into 100 ml of water at 20° C.; only with vigorous stirring. The method, then:
The dissolution rate of the resulting powder is defined by the dissolution time, viz. the time required fully to dissolve 1 gram thereof into 100 ml of water at 20° C. The dissolution time of the calcium salts compositions of the invention is not more than 60 seconds and preferably not more than 10 seconds. The dissolution time of the powder obtained according to Example 1 is found to be 3.036 sec, while the dissolution time of the untreated calcium gluconate granules is 1.3 minutes, and this only when vigorous stirring is carried out to hasten as much as possible the dissolution. Therefore the powder of Example 1 is an instantly soluble powder, as this expression is to be construed in this, specification.

The substance calcium gluconate yielded a dissolution time of 1.3 min.

For the origin of these results see patent US20020065317A1, “Calcium salt compositions having improved solubility and method for preparing them” (priority 1998, published 2002).
